Results as given in patent publication US20100111874A1, “METHOD OF CANCER DETECTION AND TREATMENT” (University of Medicine and Dentistry of New Jresey, priority 2007, published 2010).

Tests used:
Format in all cases: cell-based
[1] = target: T1, TOP1-DNA covalent complexes (Homo sapiens, UniProt P11387); test: Band depletion assay for TOP1 cleavage complexes; conditions: MCF7/RC vs MCF7; CPT 25 μM for 15 min
T1 construct: endogenous in cells; host or cells: MCF7 and MCF7/RC breast cancer cells
T1 sequence (P11387 2-765 limits assumed): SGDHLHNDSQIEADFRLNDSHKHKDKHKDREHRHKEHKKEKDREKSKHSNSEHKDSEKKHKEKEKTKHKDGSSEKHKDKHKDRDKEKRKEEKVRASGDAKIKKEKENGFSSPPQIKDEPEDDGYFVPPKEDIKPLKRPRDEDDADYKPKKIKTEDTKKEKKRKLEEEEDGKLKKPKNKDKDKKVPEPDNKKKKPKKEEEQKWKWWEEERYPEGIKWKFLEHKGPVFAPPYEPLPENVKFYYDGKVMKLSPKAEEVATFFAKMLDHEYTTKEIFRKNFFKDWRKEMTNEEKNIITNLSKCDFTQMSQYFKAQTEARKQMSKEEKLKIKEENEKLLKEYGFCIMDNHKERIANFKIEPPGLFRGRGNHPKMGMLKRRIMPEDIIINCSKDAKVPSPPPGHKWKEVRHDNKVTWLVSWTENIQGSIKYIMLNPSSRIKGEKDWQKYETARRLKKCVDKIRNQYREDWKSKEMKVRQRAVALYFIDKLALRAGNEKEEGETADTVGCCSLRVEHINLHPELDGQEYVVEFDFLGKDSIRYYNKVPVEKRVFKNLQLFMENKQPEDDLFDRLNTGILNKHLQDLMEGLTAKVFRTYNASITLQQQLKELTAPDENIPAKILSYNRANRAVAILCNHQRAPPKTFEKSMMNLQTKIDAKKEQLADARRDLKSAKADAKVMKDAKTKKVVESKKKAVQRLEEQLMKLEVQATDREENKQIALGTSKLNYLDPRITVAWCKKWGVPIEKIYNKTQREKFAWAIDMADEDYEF
Description: Band depletion assay for TOP1 cleavage complexes. Cells (106/sample) are treated with CPT (25 μM in 1% DMSO) for various times at 37° C. Cells are then lysed with 0.2 N NaOH containing 2 mM EDTA as described previously (14). Cell lysates are then neutralized with 1/10 volume of a solution containing 10% NP-40, 1 M Tris (pH 7.4), 0.1 M MgCl2, 0.1 M CaCl2, 10 mM dithiothreitol, 1 mM EGTA, and a mixture of peptide protease inhibitors (100 μg/ml each of leupeptin, pepstatin, and aprotinin), followed by the addition of another 1/10 volume of 2 N HCl. Reactions are terminated by the addition of SDS-PAGE sample buffer. Immunoblotting analysis of cell lysates is carried out using anti-Scl-70 antibody from scleroderma patients as described above.

[2] = tested on: ZR-75-1 cells stably expressing ISG15 or UbcH8 shRNA; test: Clonogenic survival assay
Description: Cell survival assays. MTT assay: Cells (3000 cells/well) are plated in 96-well microtiter plates and incubated at 37° C. in a CO2 incubator. For determination of IC50, cells are treated with varying concentrations of CPT for four days. Cells are then incubated with MTT (3-(4,5-dimethylthiazol-2-yl)-2,5-diphenyltetrazolium bromide) for 4 hrs at 37° C. The dye produced by viable cells is dissolved in DMSO and the optical density measured at 570 nm. All assays are performed at least twice in six replicate wells. Clonogenic assay: Cells (100-500 cells/plate) are plated in 6-well tissue culture plates and incubated at 37° C. in a CO2 incubator. Cells are then treated with various concentrations of CPT for 1 hr. Following CPT treatment, cells are washed free of CPT and placed in fresh medium. After 10 days, survived colonies are stained with Methylene blue and counted using the Minicount machine. Cell counting assay: Logarithmically growing cells are treated with various concentrations of CPT for 1 hr. CPT is then removed by washing the plates with CPT-free medium four times. […] Cell survival is determined by counting cells using the Coulter counter after trypsinization.
Example No. 3. […] Cell lysates of ZR-75-1 clones expressing either control shRNA (lane #1) or ISG15 shRNA (lanes #2) are analyzed by 15% SDS-PAGE. […] Equal protein loading is assessed by re-probing the same membrane with anti-tubulin antibody (lower panel). […] Equal protein loading is assessed by re-probing the same membrane blot with anti-tubulin antibody (lower panels).
Example No. 4. […] Cell lysates prepared from ZR-75-1 clones expressing either control shRNA (lane #1) or UbcH8 shRNA (lanes #2 and 3, from two independent clones), and the purified UbcH8 protein (lane #4) are analyzed by 15% SDS-PAGE. […] Equal protein loading is assessed by re-probing the same membrane with anti-tubulin antibody (lower panels). […] Cell lysates prepared from ZR-75-1 clones expressing either control shRNA (lane #1) or UbcH8 shRNA (lanes #2 and 3, two independent clones), and the purified UbcH8 protein (lane #4) are analyzed by 15% SDS-PAGE. […]

[3] = tested on: ZR-75-1 and BT474 breast cancer cells; test: Cell counting assay of CPT sensitivity; conditions: ZR-75-1 vs BT474 cells; one hr acute exposure
Description: Breast cancer ZR-75-1 and BT474 cells are treated with CPT for 1 hr followed by incubation in CPT-free medium for 3 days. Cell survival is determined by cell counting using a Coulter counter as described in Materials and Methods.

CC[C@@]1(O)C(=O)OCc2c1cc1n(c2=O)Cc2cc3ccccc3nc2-1 [CPT, camptothecin]
amount of TOP1-DNA covalent complexes [1]: No change
resistance to CPT, clonogenic survival ([2]; ZR/ISG15-shRNA1 vs control-shRNA cells, one hr acute exposure): much more resistant
resistance to CPT, clonogenic survival ([2]; ZR/UbcH8-shRNA1 vs ZR/control-shRNA2, one-hr acute CPT exposure): much more resistant
resistance to CPT, clonogenic survival ([2]; ZR/UbcH8-shRNA2 vs ZR/control-shRNA2, one-hr acute CPT exposure): much more resistant
fold greater sensitivity to CPT based on IC50 values [3]: greater than 50 fold
